Source: publication PMC4767605 (Cancer chemotherapy and pharmacology, 2016)

Assay: Phase I study: plasma pharmacokinetics of ASP9853 and docetaxel
Format: in vivo, human
Settings: compared with reported docetaxel alone [29]

Structure (SMILES): CC(=O)O[C@@]12CO[C@@H]1C[C@H](O)[C@@]1(C)C(=O)[C@H](O)C3=C(C)[C@@H](OC(=O)[C@H](O)[C@@H](NC(=O)OC(C)(C)C)c4ccccc4)C[C@@](O)([C@@H](OC(=O)c4ccccc4)[C@H]21)C3(C)C [docetaxel, reference compound]
- Docetaxel PK in combination with ASP9853: appeared similar to that reported for docetaxel alone
